Test results published in patent US20210030698A1, “GEL CONTAINING ZERUMBONE FROM BITTER GINGER (ZINGIBER ZERUMBET) FOR CURATIVE TREATMENT OF DIABETIC ULCERS” (INSTITUTO NACIONAL DE PESQUISAS DA AMAZÔNIA ? INPA, priority 2018, published 2021).

Columns and labels:
mice [1] = experiment: analgesic activity in chemical and thermal models of pain (acetic acid, formalin, capsaicin); assay type: in vivo
mice [2] = experiment: hot plate test pain model; assay type: in vivo; settings: hot plate 49-54° C.
rat paw edema = experiment: anti-inflammatory activity, carrageenan rat paw edema; assay type: in vivo; settings: croton oil and arachidonic acid models
[3] = barbiturate sleep (sodium pentobarbital); assay type: in vivo; settings: sodium pentobarbital (nembutal)
Artemia salina = experiment: in vitro cytotoxicity test on Artemia salina
Experimental: In the in vitro cytotoxicity tests, zerumbone produced mortality for Artemia salina of CL50—45 ug/ml, showing a positive correlation between antitumor and anti-inflammatory activities.

C/C1=C\CC(C)(C)/C=C/C(=O)/C(C)=C/CC1 [zerumbone]
analgesic activity against pain models acetic acid, formalin and capsaicin (mice [1]; administered orally and intraperitoneally): significant, dose-dependent analgesic activity
analgesic effect in chemical and thermal models of pain (mice [1]; doses of 250 to 1000 mg/kg, mice): potent analgesic effect
latency of the animals in the hot plate test (mice [2]): significantly increased
anti-inflammatory effect, inhibition of carrageenan inflammatory response in rat paw edema (rat paw edema): significant and dose-dependent anti-inflammatory effects
barbiturate sleep recovery time (T.R) [3]: approximately 600 minutes
CL50 mortality for Artemia salina (Artemia salina): 45 µg/mL
